# Test results: patent US20250255867A1 (Kadmon Corporation, LLC, priority 2022, published 2025)
# Settings: Cohort 2 200 mg BID
compound,measurement,value
"CC(C)NC(=O)COc1cccc(-c2nc(Nc3ccc4[nH]ncc4c3)c3ccccc3n2)c1 [Belumosudil, 2-{3-[4-(1H-indazol-5-ylamino)-2-quinazolinyl]phenoxy}-N-(propan-2-yl) acetamide]",Conjunctivitis: Affected/At Risk (%),(6.25%)
same,Constipation: # Events,1
same,Constipation: Affected/At Risk,1/16
same,Constipation: Affected/At Risk (%),(6.25%)
same,Contrast media allergy: # Events,2
same,Contrast media allergy: Affected/At Risk,2/16
same,Contrast media allergy: Affected/At Risk (%),(12.5%)
same,Contusion: # Events,2
same,Contusion: Affected/At Risk,2/16
same,Contusion: Affected/At Risk (%),(12.5%)
same,Corneal abrasion: # Events,0
same,Corneal abrasion: Affected/At Risk,0/16
same,Corneal abrasion: Affected/At Risk (%),(0%)
same,Corneal infection: # Events,2
same,Corneal infection: Affected/At Risk,1/16
same,Corneal infection: Affected/At Risk (%),(6.25%)
same,Cough: # Events,5
same,Cough: Affected/At Risk,4/16
same,Cough: Affected/At Risk (%),(25%)
same,Decreased appetite: # Events,2
same,Decreased appetite: Affected/At Risk,2/16
same,Decreased appetite: Affected/At Risk (%),(12.5%)
same,Dehydration: # Events,4
same,Dehydration: Affected/At Risk,3/16
same,Dehydration: Affected/At Risk (%),(18.75%)
same,Depression: # Events,4
same,Depression: Affected/At Risk,4/16
same,Depression: Affected/At Risk (%),(25%)
same,Diarrhoea: # Events,10
same,Diarrhoea: Affected/At Risk,5/16
same,Diarrhoea: Affected/At Risk (%),(31.25%)
same,Dizziness: # Events,4
same,Dizziness: Affected/At Risk,1/16
same,Dizziness: Affected/At Risk (%),(6.25%)
same,Drug eruption: # Events,1
same,Drug eruption: Affected/At Risk,1/16
same,Drug eruption: Affected/At Risk (%),(6.25%)
same,Dry eye: # Events,4
same,Dry eye: Affected/At Risk,4/16
same,Dry eye: Affected/At Risk (%),(25%)
same,Dry skin: # Events,0
same,Dry skin: Affected/At Risk,0/16
same,Dry skin: Affected/At Risk (%),(0%)
same,Dyspepsia: # Events,2
same,Dyspepsia: Affected/At Risk,2/16
same,Dyspepsia: Affected/At Risk (%),(12.5%)
same,Dysphagia: # Events,4
same,Dysphagia: Affected/At Risk,3/16
same,Dysphagia: Affected/At Risk (%),(18.75%)
same,Dyspnoea exertional: # Events,0
same,Dyspnoea exertional: Affected/At Risk,0/16
same,Dyspnoea exertional: Affected/At Risk (%),(0%)
same,Dyspnoea: # Events,7
same,Dyspnoea: Affected/At Risk,5/16
same,Dyspnoea: Affected/At Risk (%),(31.25%)
same,Embolism: # Events,0
same,Embolism: Affected/At Risk,0/16
same,Embolism: Affected/At Risk (%),(0%)
same,Enamel anomaly: # Events,1
same,Enamel anomaly: Affected/At Risk,1/16
same,Enamel anomaly: Affected/At Risk (%),(6.25%)
same,Epidural lipomatosis: # Events,0
same,Epidural lipomatosis: Affected/At Risk,0/16
same,Epidural lipomatosis: Affected/At Risk (%),(0%)
same,Epstein-Barr virus infection: # Events,0
same,Epstein-Barr virus infection: Affected/At Risk,0/16
same,Epstein-Barr virus infection: Affected/At Risk (%),(0%)
same,Erectile dysfunction: # Events,0
same,Erectile dysfunction: Affected/At Risk,0/16
same,Erectile dysfunction: Affected/At Risk (%),(0%)
same,Eye irritation: # Events,0
same,Eye irritation: Affected/At Risk,0/16
same,Eye irritation: Affected/At Risk (%),(0%)
same,Eye pain: # Events,4
same,Eye pain: Affected/At Risk,2/16
same,Eye pain: Affected/At Risk (%),(12.5%)
same,Eye pruritus: # Events,1
same,Eye pruritus: Affected/At Risk,1/16
same,Eye pruritus: Affected/At Risk (%),(6.25%)
same,Fall: # Events,1
same,Fall: Affected/At Risk,1/16
same,Fall: Affected/At Risk (%),(6.25%)
same,Fatigue: # Events,7
same,Fatigue: Affected/At Risk,3/16
same,Fatigue: Affected/At Risk (%),(18.75%)
same,Flatulence: # Events,2
same,Flatulence: Affected/At Risk,1/16
same,Flatulence: Affected/At Risk (%),(6.25%)
same,Flushing: # Events,1
same,Flushing: Affected/At Risk,1/16
same,Flushing: Affected/At Risk (%),(6.25%)
same,Fungal infection: # Events,0
same,Fungal infection: Affected/At Risk,0/16
same,Fungal infection: Affected/At Risk (%),(0%)
same,Gamma-glutamyltransferase increased: # Events,4
same,Gamma-glutamyltransferase increased: Affected/At Risk,4/16
same,Gamma-glutamyltransferase increased: Affected/At Risk (%),(25%)
same,Gastric ulcer: # Events,1
same,Gastric ulcer: Affected/At Risk,1/16
same,Gastric ulcer: Affected/At Risk (%),(6.25%)
same,Gastrooesophageal reflux disease: # Events,1
same,Gastrooesophageal reflux disease: Affected/At Risk,1/16
same,Gastrooesophageal reflux disease: Affected/At Risk (%),(6.25%)
same,Generalised oedema: # Events,0
same,Generalised oedema: Affected/At Risk,0/16
same,Generalised oedema: Affected/At Risk (%),(0%)
same,Genital infection fungal: # Events,1
same,Genital infection fungal: Affected/At Risk,1/16
same,Genital infection fungal: Affected/At Risk (%),(6.25%)
same,Glaucoma: # Events,1
same,Glaucoma: Affected/At Risk,1/16
same,Glaucoma: Affected/At Risk (%),(6.25%)
same,Glucose urine present: # Events,0
same,Glucose urine present: Affected/At Risk,0/16
same,Glucose urine present: Affected/At Risk (%),(0%)
same,Graft versus host disease in gastrointestinal tract: # Events,0
same,Graft versus host disease in gastrointestinal tract: Affected/At Risk,0/16
same,Graft versus host disease in gastrointestinal tract: Affected/At Risk (%),(0%)
same,Gynaecomastia: # Events,1
same,Gynaecomastia: Affected/At Risk,1/16
same,Gynaecomastia: Affected/At Risk (%),(6.25%)
same,Haematuria: # Events,1
same,Haematuria: Affected/At Risk,1/16
same,Haematuria: Affected/At Risk (%),(6.25%)
same,Hair growth abnormal: # Events,0
same,Hair growth abnormal: Affected/At Risk,0/16
same,Hair growth abnormal: Affected/At Risk (%),(0%)
same,Headache: # Events,3
same,Headache: Affected/At Risk,3/16
same,Headache: Affected/At Risk (%),(18.75%)
same,Hodgkin's disease recurrent: # Events,0
same,Hodgkin's disease recurrent: Affected/At Risk,0/16
same,Hodgkin's disease recurrent: Affected/At Risk (%),(0%)
same,Hordeolum: # Events,0
same,Hordeolum: Affected/At Risk,0/16
same,Hordeolum: Affected/At Risk (%),(0%)
same,Hot flush: # Events,0
same,Hot flush: Affected/At Risk,0/16
same,Hot flush: Affected/At Risk (%),(0%)
same,Hyperglycemia: # Events,0
same,Hyperglycemia: Affected/At Risk,0/16
same,Hyperglycemia: Affected/At Risk (%),(0%)
same,Hyperhidrosis: # Events,1
same,Hyperhidrosis: Affected/At Risk,1/16
same,Hyperhidrosis: Affected/At Risk (%),(6.25%)
same,Hyperkalaemia: # Events,2
same,Hyperkalaemia: Affected/At Risk,2/16
same,Hyperkalaemia: Affected/At Risk (%),(12.5%)
same,Hypertension: # Events,5
same,Hypertension: Affected/At Risk,2/16
same,Hypertension: Affected/At Risk (%),(12.5%)
same,Hyperthyroidism: # Events,1
same,Hyperthyroidism: Affected/At Risk,1/16
same,Hyperthyroidism: Affected/At Risk (%),(6.25%)
same,Hypertriglyceridaemia: # Events,1
same,Hypertriglyceridaemia: Affected/At Risk,1/16
same,Hypertriglyceridaemia: Affected/At Risk (%),(6.25%)
same,Hyperuricaemia: # Events,2
same,Hyperuricaemia: Affected/At Risk,1/16
same,Hyperuricaemia: Affected/At Risk (%),(6.25%)
same,Hypoaesthesia: # Events,0
same,Hypoaesthesia: Affected/At Risk,0/16
same,Hypoaesthesia: Affected/At Risk (%),(0%)
same,Hypocalcaemia: # Events,4
same,Hypocalcaemia: Affected/At Risk,1/16
same,Hypocalcaemia: Affected/At Risk (%),(6.25%)
same,Hypogonadism: # Events,0
same,Hypogonadism: Affected/At Risk,0/16
same,Hypogonadism: Affected/At Risk (%),(0%)
same,Hypokalaemia: # Events,3
same,Hypokalaemia: Affected/At Risk,2/16
same,Hypokalaemia: Affected/At Risk (%),(12.5%)
same,Hypomagnesaemia: # Events,1
same,Hypomagnesaemia: Affected/At Risk,1/16
same,Hypomagnesaemia: Affected/At Risk (%),(6.25%)
same,Hyponatraemia: # Events,0
same,Hyponatraemia: Affected/At Risk,0/16
same,Hyponatraemia: Affected/At Risk (%),(0%)
same,Hypophosphataemia: # Events,1
same,Hypophosphataemia: Affected/At Risk,1/16
same,Hypophosphataemia: Affected/At Risk (%),(6.25%)
same,Hypothermia: # Events,1
same,Hypothermia: Affected/At Risk,1/16
same,Hypothermia: Affected/At Risk (%),(6.25%)
same,Hypothyroidism: # Events,2
same,Hypothyroidism: Affected/At Risk,1/16
same,Hypothyroidism: Affected/At Risk (%),(6.25%)
same,Hypoxia: # Events,5
same,Hypoxia: Affected/At Risk,2/16
same,Hypoxia: Affected/At Risk (%),(12.5%)
same,Impaired healing: # Events,0
same,Impaired healing: Affected/At Risk,0/16
same,Impaired healing: Affected/At Risk (%),(0%)
same,Influenza like illness: # Events,2
same,Influenza like illness: Affected/At Risk,1/16
same,Influenza like illness: Affected/At Risk (%),(6.25%)
same,Influenza: # Events,2
same,Influenza: Affected/At Risk,1/16
same,Influenza: Affected/At Risk (%),(6.25%)
same,Insomnia: # Events,0
same,Insomnia: Affected/At Risk,0/16
same,Insomnia: Affected/At Risk (%),(0%)
same,Irritability: # Events,0
same,Irritability: Affected/At Risk,0/16
same,Irritability: Affected/At Risk (%),(0%)
same,Joint range of motion decreased: # Events,1
same,Joint range of motion decreased: Affected/At Risk,1/16
same,Joint range of motion decreased: Affected/At Risk (%),(6.25%)
same,Lacrimation increased: # Events,1
same,Lacrimation increased: Affected/At Risk,1/16
same,Lacrimation increased: Affected/At Risk (%),(6.25%)
same,Leukaemia recurrent: # Events,0
same,Leukaemia recurrent: Affected/At Risk,0/16
same,Leukaemia recurrent: Affected/At Risk (%),(0%)
same,Leukocytosis: # Events,0
same,Leukocytosis: Affected/At Risk,0/16
same,Leukocytosis: Affected/At Risk (%),(0%)
same,Ligament sprain: # Events,0
same,Ligament sprain: Affected/At Risk,0/16
same,Ligament sprain: Affected/At Risk (%),(0%)
same,Limb injury: # Events,0
same,Limb injury: Affected/At Risk,0/16
same,Limb injury: Affected/At Risk (%),(0%)
same,Macular degeneration: # Events,1
same,Macular degeneration: Affected/At Risk,1/16
same,Macular degeneration: Affected/At Risk (%),(6.25%)
same,Migraine: # Events,1
same,Migraine: Affected/At Risk,1/16
same,Migraine: Affected/At Risk (%),(6.25%)
same,Muscle spasms: # Events,0
same,Muscle spasms: Affected/At Risk,0/16
same,Muscle spasms: Affected/At Risk (%),(0%)
same,Muscle spasticity: # Events,0
same,Muscle spasticity: Affected/At Risk,0/16
same,Muscle spasticity: Affected/At Risk (%),(0%)
same,Muscular weakness: # Events,1
same,Muscular weakness: Affected/At Risk,1/16
same,Muscular weakness: Affected/At Risk (%),(6.25%)
same,Musculoskeletal chest pain: # Events,0
same,Musculoskeletal chest pain: Affected/At Risk,0/16
same,Musculoskeletal chest pain: Affected/At Risk (%),(0%)
same,Myalgia: # Events,1
same,Myalgia: Affected/At Risk,1/16
same,Myalgia: Affected/At Risk (%),(6.25%)
same,Nail disorder: # Events,0
same,Nail disorder: Affected/At Risk,0/16
same,Nail disorder: Affected/At Risk (%),(0%)
same,Nausea: # Events,6
same,Nausea: Affected/At Risk,4/16
same,Nausea: Affected/At Risk (%),(25%)
same,Neck pain: # Events,0
same,Neck pain: Affected/At Risk,0/16
same,Neck pain: Affected/At Risk (%),(0%)
same,Nephrotic syndrome: # Events,1
same,Nephrotic syndrome: Affected/At Risk,1/16
same,Nephrotic syndrome: Affected/At Risk (%),(6.25%)
same,Neuropathy peripheral: # Events,1
same,Neuropathy peripheral: Affected/At Risk,1/16
same,Neuropathy peripheral: Affected/At Risk (%),(6.25%)
same,Neutrophil count decreased: # Events,0
same,Neutrophil count decreased: Affected/At Risk,0/16
same,Neutrophil count decreased: Affected/At Risk (%),(0%)
same,Nocturia: # Events,0
same,Nocturia: Affected/At Risk,0/16
same,Nocturia: Affected/At Risk (%),(0%)
same,Non-cardiac chest pain: # Events,3
same,Non-cardiac chest pain: Affected/At Risk,3/16
same,Non-cardiac chest pain: Affected/At Risk (%),(18.75%)
same,Obesity: # Events,0
same,Obesity: Affected/At Risk,0/16
same,Obesity: Affected/At Risk (%),(0%)
same,Oedema peripheral: # Events,5
same,Oedema peripheral: Affected/At Risk,4/16
same,Oedema peripheral: Affected/At Risk (%),(25%)
